Source: US20240115221A1, “POSITRON IMAGING TOMOGRAPHY IMAGING AGENT C[…] METHOD FOR BACTERIAL INFECTION” (The Research Foundation for the State University of New York, priority 2016, published 2024)

Key:
[1] = biological target: T1, dihydropteroate synthase (DHPS) from S. aureus (saDHPS) (Staphylococcus aureus, UniProt O05701); assay: Coupled assay, kinetic parameters for saDHPS; type: biochemical
T1 construct: made in house
Procedure: (§1) Expressed and purified dihydropteroate synthase (DHPS) from S. aureus (saDHPS) was cloned. DHPS is the enzyme that installs PABA (p-aminobenzoic acid) in the folate biosynthesis pathway (Scheme 2). […] Using a coupled assay, it was determined that the kinetic parameters for saDHPS with PABA, PAS and F-PABA. […] Since PAS is an antibacterial compound whose mechanism of action may be related for the ability of this compound to compete with PABA for DHPS, we determined the antibacterial activity and cytotoxicity of F-PABA for several bacterial species as well as Vero cells. In each case no growth inhibition was observed up to 200 μg/ml.

Vero cells = assay: Cytotoxicity for Vero cells; type: cell-based
Procedure: as §1

E. coli [2] = assay: MIC determination (antibacterial activity); type: cell-based; conditions: Escherichia coli
Procedure: as §1

S. aureus [3] = assay: MIC determination (antibacterial activity); type: cell-based; conditions: Staphylococcus aureus
Procedure: as §1

M. tuberculosis = assay: MIC determination (antibacterial activity); type: cell-based; conditions: Mycobacterium tuberculosis
Procedure: as §1

[4] = system: several bacterial species; assay: Antibacterial activity for several bacterial species; type: cell-based
Enterococcus faecalis = assay: Uptake of [18F]F-PABA by bacteria; type: cell-based
Source text: (§2) In contrast, [^18F]F-PABA was not taken up by Enterococcus faecalis. E. faecalis has a folate salvage pathway and can take up folate from the environment. Thus, folic acid biosynthesis is dispensable in this organism, which also explains why sulfonamides are not used to treat infection by E. faecalis.

Newman S. aureus [5] = assay: Rat triceps S. aureus infection model, PET imaging and ex vivo counting; type: in vivo
Procedure: Initial in vivo studies focused on soft tissue models of MSSA infection. This included a mouse thigh infection model and rat triceps model. […] Fifty μL of 10^9 CFU of Newman S. aureus BHI culture was injected into the right triceps of a rat. After 10-15 hr the rats were imaged following iv administration of 0.8-1.2 mCi of [^18F]F-PABA. The images clearly show the accumulation of radioactivity in the right but not the left triceps. In addition to monitoring the time course of [^18F]F-PABA biodistribution, we also quantified tracer levels by postmortem ex vivo counting. […] At 60 min tracer levels were 5.4× higher in the infected right triceps compared to the uninfected left triceps. This compares favorably with other tracers.

S. aureus [6] = assay: Rat triceps infection, tracer accumulation and bacterial load under vancomycin treatment
Source text: A key goal is to identify a tracer that can be used to quantify bacterial load and monitor the change in bacterial load during and following antibiotic treatment.

Newman S. aureus [7] = assay: Rat triceps infection versus sterile inflammation (heat-killed S. aureus); type: in vivo; conditions: right triceps infected, left triceps heat-killed S. aureus
Procedure: One of the main limitations of using FDG to image infection is that FDG accumulates in the mammalian cells involved in the inflammatory response to infection. It was analyzed how inflammation affected the biodistribution of [^18F]F-PABA by generating an inflammatory response using 50 μL of […] of Newman S. aureus heat-killed bacteria.
accumulation of [^18F]F-PABA at the site of infection is likely not due to uptake by cells involved in the inflammatory response.

E. coli [8] = assay: Uptake of [18F]F-PABA by bacteria; type: cell-based
Source text: (§3) The ability of different bacterial species to take up [^18F] F-PABA was studied. The radiotracer accumulated in both methicillin sensitive S. aureus (MSSA, Newman) and methicillin-resistant S. aureus (MRSA), as well as the Gram negative bacteria E. coli and Klebsiela pneumoniae.

Klebsiela pneumoniae = assay: Uptake of [18F]F-PABA by bacteria; type: cell-based
Source text: as §3

[9] = system: methicillin-resistant S. aureus (MRSA); assay: Uptake of [18F]F-PABA by bacteria; type: cell-based
Source text: as §3

[10] = system: methicillin sensitive S. aureus (MSSA, Newman); assay: Uptake of [18F]F-PABA by bacteria; type: cell-based
Source text: as §3, §2

[11] = after a further 3 doses of vancomycin

T1 sequence (O05701 whole entry): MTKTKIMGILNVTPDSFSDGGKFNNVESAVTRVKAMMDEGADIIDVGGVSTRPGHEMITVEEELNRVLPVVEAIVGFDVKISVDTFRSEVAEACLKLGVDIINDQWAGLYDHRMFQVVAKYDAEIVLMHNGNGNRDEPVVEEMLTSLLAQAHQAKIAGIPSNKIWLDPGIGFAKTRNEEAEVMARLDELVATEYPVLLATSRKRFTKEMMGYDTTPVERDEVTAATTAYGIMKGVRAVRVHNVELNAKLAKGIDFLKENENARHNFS

Nc1ccc(C(=O)O)c(F)c1 [2-F-PABA, 2-fluoro-4-aminobenzoic acid]
substrate for saDHPS [1]: alternative substrate for saDHPS | concentration up to which no growth inhibition was observed (cytotoxicity) (Vero cells): > 200 µg/mL | MIC (E. coli [2]): > 200 µg/mL | MIC (S. aureus [3]): > 200 µg/mL | MIC (M. tuberculosis): > 100 µg/mL | MIC ([4]; discussion, species not named): > 100 µg/mL | concentration up to which no growth inhibition was observed ([4]; several bacterial species): > 200 µg/mL | antibacterial activity ([4]; summary of Table 1): no antibacterial activity

Nc1ccc(C(=O)O)c([18F])c1 [[^18F]F-PABA, 4-Amino-2-[^18f]-fluorobenzoic acid]
uptake of radiotracer (Enterococcus faecalis): not taken up | tracer levels in infected right triceps compared to uninfected left triceps (Newman S. aureus [5]; iv 0.8-1.2 mCi, at 60 min): 5.4 × | biodistribution of tracer (Newman S. aureus [5]; iv, postmortem ex vivo counting): distributed to all tissues and organs with the exception of the brain | tracer accumulation in infected triceps (S. aureus [6]; after 3 doses of vancomycin): 0.015±0.005 %1D/cc | decrease in tracer levels (S. aureus [6]; after 3 doses of vancomycin versus before treatment): ~3 fold | tracer accumulation in infected triceps (S. aureus [6]; [11]): 0.013±0.002 % 10/cc | tracer accumulation in infected triceps (S. aureus [6]; before treatment): 0.051±0.008 %1D/cc | tracer levels in the uninfected triceps (S. aureus [6]; uninfected triceps): 0.007±0.001 %1D/cc | radiotracer levels at site of infection compared to site of sterile inflammation (Newman S. aureus [7]): 10 fold | uptake of radiotracer (E. coli [8]): accumulated | uptake of radiotracer (Klebsiela pneumoniae): accumulated | uptake of radiotracer [9]: accumulated | uptake of radiotracer ([10]; heat-killed MSSA cells): unable to take up | uptake of radiotracer ([10]; viable MSSA (Newman)): accumulated

CN[C@H](CC(C)C)C(=O)N[C@H]1C(=O)N[C@@H](CC(N)=O)C(=O)N[C@H]2C(=O)N[C@H]3C(=O)N[C@H](C(=O)N[C@H](C(=O)O)c4cc(O)cc(O)c4-c4cc3ccc4O)[C@H](O)c3ccc(c(Cl)c3)Oc3cc2cc(c3O[C@@H]2O[C@H](CO)[C@@H](O)[C@H](O)[C@H]2O[C@H]2C[C@](C)(N)[C@H](O)[C@H](C)O2)Oc2ccc(cc2Cl)[C@H]1O [vancomycin, reference compound]
bacterial burden of infected triceps (S. aureus [6]; after 3 doses of vancomycin): 8.1±0.3 Log10 CFU | decrease in bacterial burden (S. aureus [6]; after 3 doses of vancomycin): ~3 logs | bacterial burden of infected triceps (S. aureus [6]; [11]): 7.0±0.9 Log10 CFU | additional decrease in bacterial burden (S. aureus [6]; further 3 doses of vancomycin): 1 log
